In article PMC8523698, “Preclinical characterization of an intravenous coronavirus 3CL protease inhibitor for the potential treatment of COVID19” (Nature Communications, 2021):
Where “and” joins values, the source holds several entries; their conditions need not be identical. Identical values can stand only once.

Assays:
CYP3A4/5 = experiment: in vitro; conditions: human, microsomes, pH 7.4, Percent of Control Activity
[1] = Monkey pharmacokinetic study; conditions: for AUC(0-inf): AUCinf; for Vd: Vdss; for AUC(0-t): po, AUCt; for Total Concn in plasma: 1mg/kg IV PF-00835231 dosed (crossover), individual animals and mean
[2] = In vitro micronucleus formation; assay type: cell-based
[3] = system: SARS-CoV-2 Washington strain 1 (USA_WA1/2020); assay type: cell-based
[4] = CYP 3A4/5 (mdz), 30-Minute Preincubation
[5] = CYP 3A4/5 (mdz), Zero-Minute Preincubation
[6] = CYP 3A4/5 (tst), 30-Minute Preincubation
[7] = CYP 3A4/5 (tst), Zero-Minute Preincubation
[8] = male, Cynomolgus, cynomolgus monkey, plasma, iv, 1 mg/kg, Mean, monkey, PF-00835231 active dosed 1mg/kg intravenous (crossover)
[9] = male, Cynomolgus, cynomolgus monkey, plasma, iv, 1 mg/kg, monkey, PF-00835231 active dosed 1mg/kg intravenous (crossover), individual monkeys
[10] = monkey, PF-00835231 active dosed 1mg/kg intravenous (crossover), individual monkeys, 1 mg/kg

`COc1cccc2[nH]c(C(=O)N[C@@H](CC(C)C)C(=O)N[C@@H](C[C@@H]3CCNC3=O)C(=O)CO)cc12` [PF-00835231] gave an activity at 43.8 µM (CYP3A4/5; [4]) of 77.3%, an activity at 43.8 µM (CYP3A4/5; [5]) of 101% and an activity at 93.5 µM (CYP3A4/5; [4]) of 64.9%. It also gave an activity at 93.5 µM (CYP3A4/5; [5]) of 107%, an activity at 200 µM (CYP3A4/5; [5]) of 104% and an activity at 30 min, 0.1 µM (CYP3A4/5; CYP 3A4/5 (tst), 0.1 µM, 30-Minute Preincubation) of 87.1%. For the same compound, the activity at 0.1 µM (CYP3A4/5; CYP 3A4/5 (tst), 0.1 µM, Zero-Minute Preincubation) was 103%, the activity at 0 min, 0.214 µM (CYP3A4/5; CYP 3A4/5 (tst), 0.214 µM, Zero-Minute Preincubation) was 102% and the activity at 30 min, 0.979 µM (CYP3A4/5; CYP 3A4/5 (tst), 0.979 µM, 30-Minute Preincubation) was 97.6%. For the same compound, the activity at 0 min, 2.09 µM (CYP3A4/5; CYP 3A4/5 (tst), 2.09 µM, Zero-Minute Preincubation) was 98.1%, the activity at 4.48 µM (CYP3A4/5; CYP 3A4/5 (tst), 4.48 µM, 30-Minute Preincubation) was 101% and the activity at 20.5 µM (CYP3A4/5; [6]) was 83.2%. The activity at 20.5 µM (CYP3A4/5; [7]) was 75.8%, the activity at 43.8 µM (CYP3A4/5; [6]) was 55.5% and the activity at 43.8 µM (CYP3A4/5; [7]) was 79.9%. The activity at 93.5 µM (CYP3A4/5; [7]) was 74.9%, the activity at 200 µM (CYP3A4/5; [6]) was 24.3% and the “Total Concn, Mean” value ([1]; Monkey, 1mg/kg intravenous, Time 0.083) was 1225 ng/mL. For the same compound, the “Total Concn” value ([1]; Monkey, 1mg/kg intravenous, Time 0.083, individual animals) was 1220 ng/mL, the “Total Concn” value ([1]; Monkey, 1mg/kg intravenous, Time 0.083, individual animals, 1 mg/kg) was 1230 ng/mL and the “Total Concn, Mean” value ([1]; Monkey, 1mg/kg intravenous, Time 0.25) was 365 ng/mL. For the same compound, the “Total Concn” value ([1]; Monkey, 1mg/kg intravenous, Time 0.25, individual animals) was 288 ng/mL, the “Total Concn” value ([1]; Monkey, 1mg/kg intravenous, Time 0.25, individual animals, 1 mg/kg) was 442 ng/mL and the “Total Concn, Mean” value ([1]; Monkey, 1mg/kg intravenous, Time 0.5) was 183 ng/mL. For the same compound, the “Total Concn” value ([1]; Monkey, 1mg/kg intravenous, Time 0.5, individual animals) was 154 ng/mL, the “Total Concn” value ([1]; Monkey, 1mg/kg intravenous, Time 0.5, individual animals, 1 mg/kg) was 212 ng/mL and the “Total Concn, Mean” value ([1]; Monkey, 1mg/kg intravenous, Time 1) was 107 ng/mL. For the same compound, the “Total Concn” value ([1]; Monkey, 1mg/kg intravenous, Time 1, individual animals, 1 mg/kg) was 89.9 ng/mL and 124 ng/mL, the “Total Concn, Mean” value ([1]; Monkey, 1mg/kg intravenous, Time 2) was 46 ng/mL and the “Total Concn” value ([1]; Monkey, 1mg/kg intravenous, Time 2, individual animals, 1 mg/kg) was 45.5 ng/mL and 47 ng/mL. For the same compound, the “Total Concn, Mean” value ([1]; Monkey, 1mg/kg intravenous, Time 4) was 13 ng/mL, the “Total Concn” value ([1]; Monkey, 1mg/kg intravenous, Time 4, individual animals, 1 mg/kg) was 12.2 ng/mL and 14 ng/mL and the “Total Concn, Mean” value ([1]; Monkey, 1mg/kg intravenous, Time 7) was 2.6 ng/mL. For the same compound, the “Total Concn” value ([1]; Monkey, 1mg/kg intravenous, Time 7, individual animals, 1 mg/kg) was 2.87 ng/mL and 2.25 ng/mL, the Vdss ([1]; Monkey, 1mg/kg intravenous, individual animals, 1 mg/kg) was 1.51 L/kg and the AUC(0-inf) [1, 8] was 583 ng·h/mL. It also gave an AUC(0-inf) [1, 9] of 614 ng·h/mL, a clearance ([1]; male, Cynomolgus, cynomolgus monkey, plasma, iv, 1 mg/kg, Clearance, Mean, monkey, PF-00835231 active dosed 1mg/kg intravenous (crossover)) of 28.7 mL/min/kg and a clearance ([1]; male, Cynomolgus, cynomolgus monkey, plasma, iv, 1 mg/kg, Clearance, monkey, PF-00835231 active dosed 1mg/kg intravenous (crossover), individual monkeys) of 27.1 mL/min/kg. For the same compound, the half-life ([1]; male, Cynomolgus, cynomolgus monkey, plasma, iv, 1 mg/kg, Half life, Mean, monkey, PF-00835231 active dosed 1mg/kg intravenous (crossover)) was 55.2 min, the half-life ([1]; male, Cynomolgus, cynomolgus monkey, plasma, iv, 1 mg/kg, Half life, monkey, PF-00835231 active dosed 1mg/kg intravenous (crossover), individual monkeys) was 68.4 min and the Vd [1, 8] was 1.43 L/kg. It also gave a Vd [1, 9] of 1.34 L/kg, a half-life ([1]; male, cynomolgus monkey, plasma, iv, 1 mg/kg, Terminal T1/2, monkey IV (n=2, range), PF-07304814 […], PF-00835231 1.0mg/kg) of under 120 min and a Vd ([1]; male, cynomolgus monkey, plasma, iv, 1 mg/kg, Mean, Monkey, 1mg/kg intravenous) of 1.43 L/kg. It also gave a Vd ([1]; male, cynomolgus monkey, plasma, iv, 1 mg/kg, Monkey, 1mg/kg intravenous, individual animals) of 1.34 L/kg, a Vd ([1]; male, cynomolgus monkey, plasma, iv, 1 mg/kg, Monkey, Vdss input) of 1.4 L/kg and a Vd ([1]; male, cynomolgus monkey, plasma, iv, 1 mg/kg, monkey IV (n=2, range), PF-07304814 […], PF-00835231 1.0mg/kg) of under 1.5 L/kg. For the same compound, the clearance ([1]; male, cynomolgus monkey, plasma, iv, Cl, monkey IV (n=2, range), PF-07304814 […], PF-00835231 1.0mg/kg) was 28.7 mL/min/kg, the half-life ([1]; male, cynomolgus monkey, plasma, iv, Terminal T1/2, monkey IV (n=2, range), PF-07304814 […], PF-00835231 1.0mg/kg) was 72 min and the Vd ([1]; male, cynomolgus monkey, plasma, iv, monkey IV (n=2, range), PF-07304814 […], PF-00835231 1.0mg/kg) was 1.4 L/kg. For the same compound, the AUC(0-t) ([1]; male, cynomolgus monkey, plasma, 5 mg/kg, Mean, monkey, PF-00835231 5mg/kg PO dose) was 0.466 ng·h/mL, the AUC(0-t) ([1]; male, cynomolgus monkey, plasma, 5 mg/kg, monkey, PF-00835231 5mg/kg PO dose, individual monkeys) was 0.328 ng·h/mL and the “Total Concn” value ([1]; monkey plasma, PF-00835231 active dosed 1mg/kg intravenous (crossover), time 0.5 h, individual monkeys, 1 mg/kg) was 212 ng/mL. The “Total Concn” value ([1]; monkey plasma, PF-00835231 active dosed 1mg/kg intravenous (crossover), time 1 h, individual monkeys, 1 mg/kg) was 124 ng/mL, the “Total Concn” value ([1]; monkey plasma, PF-00835231 active dosed 1mg/kg intravenous (crossover), time 2 h, individual monkeys, 1 mg/kg) was 47 ng/mL and the “Total Concn” value ([1]; monkey plasma, PF-00835231 active dosed 1mg/kg intravenous (crossover), time 4 h, individual monkeys, 1 mg/kg) was 14 ng/mL. The “Total Concn” value ([1]; monkey plasma, PF-00835231 active dosed 1mg/kg intravenous (crossover), time 7 h, individual monkeys, 1 mg/kg) was 2.25 ng/mL, the “Urine Concn” value ([1]; monkey urine 0-7h, PF-00835231 active dosed 1mg/kg intravenous (crossover), individual monkeys, 1 mg/kg) was 260 ng/mL and 304 ng/mL and the “Urine Concn” value ([1]; monkey urine 7-24h, PF-00835231 active dosed 1mg/kg intravenous (crossover), individual monkeys, 1 mg/kg) was 6.76 ng/mL and 33.1 ng/mL. The “Total Concn in plasma” value ([1]; monkey, Time 0.083, 1 mg/kg) was 1220 ng/mL and 1225 ng/mL, the “Total Concn in plasma” value ([1]; monkey, Time 0.25, 1 mg/kg) was 442 ng/mL and 365 ng/mL and the “Total Concn in plasma” value ([1]; monkey, Time 0.5, 1 mg/kg) was 212 ng/mL and 183 ng/mL. The “Total Concn in plasma” value ([1]; monkey, Time 1, 1 mg/kg) was 124 ng/mL and 107 ng/mL, the “Total Concn in plasma” value ([1]; monkey, Time 2, 1 mg/kg) was 47 ng/mL and 46 ng/mL and the “Total Concn in plasma” value ([1]; monkey, Time 4, 1 mg/kg) was 14 ng/mL and 13 ng/mL. For the same compound, the “Total Concn in plasma” value ([1]; monkey, Time 7, 1 mg/kg) was 2.87 ng/mL and 2.25 ng/mL and 2.6 ng/mL, the AUCt ([1]; monkey, PF-00835231 5mg/kg PO dose, individual monkeys, 5 mg/kg) was 0.603 ng·h/mL and the AUCinf [1, 10] was 552 ng·h/mL. It also gave a Half life [1, 10] of 1.27 h, a Vdss [1, 10] of 1.51 L/kg and a clearance [1, 10] of 30.2 mL/min/kg. For the same compound, the “Oral F%” value ([1]; monkey, 5mg/kg PO vs 1.0mg/kg IV) was < 0.1% and < 2%, the micronuclei formation [2] was “did not induce micronuclei formation” and the “hill coefficient (m)” value [3] was 3.
